Data taken from US10206394B2, “Herbicidal compounds” (Syngenta Participations AG, priority 2014, dated 2019).
Where two headings read alike, the source gives them in different places.

Key:
Test in all cases: Glasshouse assay for herbicidal activity (pre- and post-emergence), percentage phytotoxicity
Type in all cases: in vivo
[1] = system: Avena fatua (AVEFA); details: Avena fatua
How it was run: (§1)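 Potted test plants in standard soil received the compound pre-emergence (day 1) or post-emergence (about day 12). Evaluation: visual damage score from 0% (none) to 100% (total), 15 days after application post-emergence, 20 days pre-emergence.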

[2] = system: Echinochloa crus-galli (ECHCG); details: Echinochloa crus-galli
How it was run: as §1

[3] = system: Alopecurus myosuroides (ALOMY); details: Alopecurus myosuroides
How it was run: as §1

[4] = system: Lolium perenne (LOLPE); details: Lolium perenne
How it was run: as §1

[5] = post-emergence, 360 h, 250 g/ha, post-emergence, 15 DAA, visual assessment (100%=total damage, 0%=no damage), read-out: Post-emergence herbicidal activity (percentage phytotoxicity) AVEFA POST
[6] = pre-emergence, 480 h, 250 g/ha, pre-emergence, 20 DAA, visual assessment (100%=total damage, 0%=no damage), read-out: Pre-emergence herbicidal activity (percentage phytotoxicity) AVEFA PRE
[7] = post-emergence, 360 h, 250 g/ha, post-emergence, 15 DAA, visual assessment (100%=total damage, 0%=no damage), read-out: Post-emergence herbicidal activity (percentage phytotoxicity) ECHCG POST
[8] = pre-emergence, 480 h, 250 g/ha, pre-emergence, 20 DAA, visual assessment (100%=total damage, 0%=no damage), read-out: Pre-emergence herbicidal activity (percentage phytotoxicity) ECHCG PRE
[9] = post-emergence, 360 h, 250 g/ha, post-emergence, 15 DAA, visual assessment (100%=total damage, 0%=no damage), read-out: Post-emergence herbicidal activity (percentage phytotoxicity) ALOMY POST
[10] = pre-emergence, 480 h, 250 g/ha, pre-emergence, 20 DAA, visual assessment (100%=total damage, 0%=no damage), read-out: Pre-emergence herbicidal activity (percentage phytotoxicity) ALOMY PRE
[11] = post-emergence, 360 h, 250 g/ha, post-emergence, 15 DAA, visual assessment (100%=total damage, 0%=no damage), read-out: Post-emergence herbicidal activity (percentage phytotoxicity) LOLPE POST
[12] = pre-emergence, 480 h, 250 g/ha, pre-emergence, 20 DAA, visual assessment (100%=total damage, 0%=no damage), read-out: Pre-emergence herbicidal activity (percentage phytotoxicity) LOLPE PRE
[13] = post-emergence, 360 h, Rate 250 g/ha, post-emergence, assessed visually 15 DAA, 100%=total damage, 0%=no damage, read-out: Post-emergence herbicidal activity (percentage phytotoxicity) AVEFA POST
[14] = pre-emergence, 480 h, Rate 250 g/ha, pre-emergence, assessed visually 20 DAA, 100%=total damage, 0%=no damage, read-out: Pre-emergence herbicidal activity (percentage phytotoxicity) AVEFA PRE
[15] = post-emergence, 360 h, Rate 250 g/ha, post-emergence, assessed visually 15 DAA, 100%=total damage, 0%=no damage, read-out: Post-emergence herbicidal activity (percentage phytotoxicity) ECHCG POST
[16] = pre-emergence, 480 h, Rate 250 g/ha, pre-emergence, assessed visually 20 DAA, 100%=total damage, 0%=no damage, read-out: Pre-emergence herbicidal activity (percentage phytotoxicity) ECHCG PRE
[17] = post-emergence, 360 h, Rate 250 g/ha, post-emergence, assessed visually 15 DAA, 100%=total damage, 0%=no damage, read-out: Post-emergence herbicidal activity (percentage phytotoxicity) ALOMY POST
[18] = pre-emergence, 480 h, Rate 250 g/ha, pre-emergence, assessed visually 20 DAA, 100%=total damage, 0%=no damage, read-out: Pre-emergence herbicidal activity (percentage phytotoxicity) ALOMY PRE
[19] = post-emergence, 360 h, Rate 250 g/ha, post-emergence, assessed visually 15 DAA, 100%=total damage, 0%=no damage, read-out: Post-emergence herbicidal activity (percentage phytotoxicity) LOLPE POST
[20] = pre-emergence, 480 h, Rate 250 g/ha, pre-emergence, assessed visually 20 DAA, 100%=total damage, 0%=no damage, read-out: Pre-emergence herbicidal activity (percentage phytotoxicity) LOLPE PRE

Row | Compound | pest or weed control at 250 g/ha [1, 5] [%] | pest or weed control at 250 g/ha [1, 6] [%] | pest or weed control at 250 g/ha [2, 7] [%] | pest or weed control at 250 g/ha [2, 8] [%] | pest or weed control at 250 g/ha [3, 9] [%] | pest or weed control at 250 g/ha [3, 10] [%] | pest or weed control at 250 g/ha [4, 11] [%] | pest or weed control at 250 g/ha [4, 12] [%] | pest or weed control at 250 g/ha [1, 13] [%] | pest or weed control at 250 g/ha [1, 14] [%] | pest or weed control at 250 g/ha [2, 15] [%] | pest or weed control at 250 g/ha [2, 16] [%] | pest or weed control at 250 g/ha [3, 17] [%] | pest or weed control at 250 g/ha [3, 18] [%] | pest or weed control at 250 g/ha [4, 19] [%] | pest or weed control at 250 g/ha [4, 20] [%] | also measured
1 | C#CCN(C)C(=O)CC1CC(=O)C(c2c(C)cc(-c3ncc(F)cn3)cc2C)C1=O (stereo not drawn) [Compound B334] | – | – | – | – | – | – | – | – | – | – | – | – | – | – | – | – | pest or weed control at 250 g/ha ([1]; post-emergence, 360 h, Rate 250 g/ha, post-emergence, visual assessment 15 DAA, 100%=total damage, 0%=no damage, read-out: Post-emergence herbicidal activity (percentage phytotoxicity) AVEFA POST): 100%; pest or weed control at 250 g/ha ([1]; pre-emergence, 480 h, Rate 250 g/ha, pre-emergence, visual assessment 20 DAA, 100%=total damage, 0%=no damage, read-out: Pre-emergence herbicidal activity (percentage phytotoxicity) AVEFA PRE): 100%; pest or weed control at 250 g/ha ([2]; post-emergence, 360 h, Rate 250 g/ha, post-emergence, visual assessment 15 DAA, 100%=total damage, 0%=no damage, read-out: Post-emergence herbicidal activity (percentage phytotoxicity) ECHCG POST): 100%; pest or weed control at 250 g/ha ([2]; pre-emergence, 480 h, Rate 250 g/ha, pre-emergence, visual assessment 20 DAA, 100%=total damage, 0%=no damage, read-out: Pre-emergence herbicidal activity (percentage phytotoxicity) ECHCG PRE): 100%; pest or weed control at 250 g/ha ([3]; post-emergence, 360 h, Rate 250 g/ha, post-emergence, visual assessment 15 DAA, 100%=total damage, 0%=no damage, read-out: Post-emergence herbicidal activity (percentage phytotoxicity) ALOMY POST): 100%; pest or weed control at 250 g/ha ([3]; pre-emergence, 480 h, Rate 250 g/ha, pre-emergence, visual assessment 20 DAA, 100%=total damage, 0%=no damage, read-out: Pre-emergence herbicidal activity (percentage phytotoxicity) ALOMY PRE): 100%; pest or weed control at 250 g/ha ([4]; post-emergence, 360 h, Rate 250 g/ha, post-emergence, visual assessment 15 DAA, 100%=total damage, 0%=no damage, read-out: Post-emergence herbicidal activity (percentage phytotoxicity) LOLPE POST): 90%; pest or weed control at 250 g/ha ([4]; pre-emergence, 480 h, Rate 250 g/ha, pre-emergence, visual assessment 20 DAA, 100%=total damage, 0%=no damage, read-out: Pre-emergence herbicidal activity (percentage phytotoxicity) LOLPE PRE): 100%
2 | Cc1cc(-c2ncc(Cl)cc2F)cc(C)c1C1C(=O)CC(CC(=O)NCc2cccc(F)c2)C1=O (stereo not drawn) [Compound B129] | 100 | 50 | 100 | 70 | 100 | 90 | 100 | 90 | – | – | – | – | – | – | – | – | –
3 | Cc1cc(C)c(C2C(=O)CC(CC(=O)NCc3ncc(C(F)(F)F)cc3Cl)C2=O)c(C)c1 (stereo not drawn) [Compound A109] | – | – | – | – | – | – | – | – | 80 | 50 | 80 | 80 | 90 | 90 | 80 | 90 | –
4 | CC#Cc1cc(C)c(C2C(=O)CC(CC(=O)NCC#N)C2=O)c(C)c1 (stereo not drawn) [Compound A78] | – | – | – | – | – | – | – | – | 40 | 30 | 100 | 60 | 80 | 10 | 30 | 20 | –
5 | Cc1cc(C)c(C2C(=O)CC(CC(=O)NCc3ccccc3C)C2=O)c(C)c1 (stereo not drawn) [Compound B12] | 60 | 30 | 90 | 100 | 60 | 70 | 90 | 90 | – | – | – | – | – | – | – | – | –
6 | C#CC(C)(COC)NC(=O)CC1CC(=O)C(c2c(C)cc(C)cc2C)C1=O (stereo not drawn) [Compound B55] | 60 | 30 | 60 | 50 | 80 | 80 | 70 | 70 | – | – | – | – | – | – | – | – | –
